# Results: ChEMBL document CHEMBL1127448, “Synthesis, ligand binding, and QSAR (CoMFA and classical) study of 3 beta-(3'-substituted phenyl)-, 3 beta-(4'-substituted phenyl)-, and 3 beta-(3',4'-disubstituted phenyl)tropane-2 beta-carboxylic acid methyl esters” (J Med Chem, 1994)
# Molecular target: Sodium-dependent dopamine transporter (Rattus norvegicus, UniProt P23977)
# Assay: Concentration required to inhibit 50% of radioligand binding ([3H]WIN-35428) to the dopamine (DA) transporter in rat
# Chain of Sodium-dependent dopamine transporter (P23977 whole entry): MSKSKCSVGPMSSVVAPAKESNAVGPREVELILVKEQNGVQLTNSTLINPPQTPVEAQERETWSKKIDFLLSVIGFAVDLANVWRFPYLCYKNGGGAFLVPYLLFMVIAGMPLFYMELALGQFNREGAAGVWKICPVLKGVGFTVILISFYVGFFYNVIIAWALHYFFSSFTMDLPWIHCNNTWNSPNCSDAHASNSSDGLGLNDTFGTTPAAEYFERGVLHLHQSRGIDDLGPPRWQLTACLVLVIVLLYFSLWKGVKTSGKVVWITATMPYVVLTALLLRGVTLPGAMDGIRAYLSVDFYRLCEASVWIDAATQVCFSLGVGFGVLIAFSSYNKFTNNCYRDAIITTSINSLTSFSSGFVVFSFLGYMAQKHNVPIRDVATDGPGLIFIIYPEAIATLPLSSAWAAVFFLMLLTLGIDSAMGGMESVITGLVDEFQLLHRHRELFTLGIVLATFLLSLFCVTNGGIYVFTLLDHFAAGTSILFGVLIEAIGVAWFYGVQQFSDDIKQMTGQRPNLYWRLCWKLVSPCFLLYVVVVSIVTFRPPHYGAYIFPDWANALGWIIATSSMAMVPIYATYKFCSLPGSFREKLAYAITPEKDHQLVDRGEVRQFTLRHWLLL
row,Compound,IC50 [nM]
1,COC(=O)C1C2CC[C@H](C[C@H]1c1ccc(Cl)c(Cl)c1)N2C (some centres not stated),0.79
2,COC(=O)C1C2CC[C@H](C[C@@H]1c1ccc(F)c(C)c1)N2C (stereo in doubt; 2x),2.95
3,COC(=O)C1C2CC[C@H](C[C@@H]1c1ccc(N)c(I)c1)N2C (some centres not stated),1.35
4,COC(=O)C1C2CC[C@H](C[C@@H]1c1cccc(Cl)c1)N2C (some centres not stated),6.27
5,COC(=O)[C@@H]1C2CC[C@H](C[C@@H]1c1ccc(N)cc1)N2C,9.84
6,COC(=O)C1C2CC[C@H](C[C@@H]1c1ccc(O)cc1)N2C (some centres not stated),12.1
7,CCC(=O)Nc1ccc([C@H]2C[C@H]3CCC([C@H]2C(=O)OC)N3C)cc1,121
8,COC(=O)C1C2CC[C@@H](C[C@@H]1c1ccc([N+](=O)[O-])cc1)N2C (some centres not stated),13.1
9,COC(=O)C1C2CC[C@H](C[C@@H]1c1ccc(N)c(Br)c1)N2C (some centres not stated),3.91
10,COC(=O)C1C2CC[C@H](C[C@@H]1c1cccc(I)c1)N2C (some centres not stated),26.1
11,COC(=O)C1C2CC[C@H](C[C@@H]1c1cccc(F)c1)N2C (some centres not stated),16.4
12,COC(=O)C1C2CC[C@H](C[C@H]1c1ccc(Br)cc1)N2C (some centres not stated),1.69
